Laboratory results published in paper PMC7464788, “Modification and Targeted Design of N-Terminal Truncates Derived from Brevinin with Improved Therapeutic Efficacy” (Biology, 2020).
Converted amounts (≈) assume the structure as drawn. “And” between values parts separate entries of the source, which are not always exact repeats. Equal values may be shown once. Positions of bridges follow the written chain, without caps; N, C: chain ends. Residues, ends and D or L forms follow the SMILES beside them. No end group written: not given here.

How the values were obtained:
[1] = system: Staphylococcus aureus (NCTC10788); conditions: cited from earlier work
Description: (§1) Although B1PLC had better activity against bacteria, its potency was slightly lower than that of B1PLB against fungi. As we know, the more positive charge of B1PLC (Table 1) could contribute to an enhanced electrostatic interaction with the negatively charged bacterial cell envelope. Therefore, to try to combine the properties of the two peptides, we designed B1A by substitution of the Asn residue at po ...

[2] = system: Candida albicans (NCYC1467); conditions: cited from earlier work
Description: as §1

[3] = system: Escherichia coli (NCTC10418); conditions: cited from earlier work
Description: as §1

[4] = system: methicillin-resistant S. aureus (MRSA) (NCTC12493); assay type: cell-based, Staphylococcus aureus
Experimental: (§2) The antimicrobial assay was carried out to detect the minimum inhibitory concentration (MIC) and the minimum bactericidal concentration (MBC) of each peptide on the microbes as described previously. Seven different microorganisms were used in the assay: Gram-positive bacteria Staphylococcus aureus (NCTC10788), Enterococcus faecalis (NCTC12697), and methicillin-resistant S. aureus (MRSA) (NCTC12493); Gram-negative bacteria Escherichia coli (NCTC10418), Pseudomonas aeruginosa (ATCC27853), and Klebsiella pneumoniae (ATCC 43816); and fungi Candida albicans (NCYC1467). Bacterial strains were inoculated and grown to mid-log phase in fresh Mueller Hinton broth (MHB) at 37 °C for overnight, then bacteria inoculum suspensions were subcultured until reaching the logarithmic growth phase by measuring OD of the cultures at wavelength 550 nm. Then, 99 µL bacteria and 1 µL peptide solution were mixed in the 96-wells microplate. For positive and negative controls, the bacteria were incubated with antibiotics (Norfloxacin for Gram-positive bacteria and Gram-negative bacteria; Amphotericin B for fungi) solution and MHB medium, respectively. Experiments were repeated five times in five replicates.

horse erythrocytes = assay: Haemolytic assay; assay type: cell-based; conditions: 2% (v/v) horse red blood cells, 37 °C, 2 h; 1% Triton-X 100 positive control; three times in five replicates
Experimental: The haemolytic assay was carried out to detect the cytotoxicity of each peptide to erythrocytes obtained from fresh defibrinated horse blood as described before. An appropriate volume of horse blood solution was collected via washing and transferring until the supernatant was clear. Then, 2% (v/v) suspension of red blood cells were incubated with peptide at 37 °C for 2 h. For positive and negative controls, the red blood cells were incubated with 1% (v/v) Triton-X 100 and Phosphate-buffered saline (PBS) solution, respectively. The 10% of maximal haemolysis concentration (HC10, μM) was utilised to assess the haemolytic potential. Experiments were repeated three times in five replicates.

[5] = system: Klebsiella pneumoniae (ATCC 43816); assay type: cell-based
Experimental: as §2

[6] = system: Pseudomonas aeruginosa (ATCC27853); assay type: cell-based
Experimental: as §2

[7] = system: Staphylococcus aureus (NCTC10788); assay type: cell-based
Experimental: as §2

[8] = system: Candida albicans (NCYC1467); assay type: cell-based
Experimental: as §2

[9] = system: Enterococcus faecalis (NCTC12697); assay type: cell-based
Experimental: as §2

[10] = system: Escherichia coli (NCTC10418); assay type: cell-based
Experimental: as §2

Row | Molecule | Antimicrobial activity against S. aureus [1] | Antimicrobial activity against C. albicans [2] | Antimicrobial activity against E. coli [3] | MBC MRSA [4] | MIC MRSA [4] | HC10 (concentration causing 10% red cell lysis) (horse erythrocytes) | MBC K. pneumoniae [5] | MIC K. pneumoniae [5] | MBC P. aeruginosa [6] | MIC P. aeruginosa [6] | MBC S. aureus [7] | MBC C. albicans [8] | MIC C. albicans [8] | MBC E. faecalis [9] | MIC E. faecalis [9] | MBC E. coli [10] | MIC E. coli [10]
1 | FLPVIAGVAAKFLPKIFCAITKKC (disulfide 18-24 (inferred)) [Peptide B1PLC, brevinin-1PLc, brevinin-1 peptide from the skin secretions of Lithobates palustris (Rana palustris)] | potent antimicrobial activity | potent antimicrobial activity | potent antimicrobial activity | – | – | – | – | – | – | – | – | – | – | – | – | – | –
2 | FLPLIAGLAANFLPKIFCAITKKC (disulfide 18-24 (inferred)) [Peptide B1PLB, Brevinin-1PLb, brevinin-1 peptide from the skin secretions of Lithobates palustris (Rana palustris)] | potent antimicrobial activity | potent antimicrobial activity | potent antimicrobial activity | – | – | – | – | – | – | – | – | – | – | – | – | – | –
3 | CC[C@H](C)[C@@H]1NC(=O)[C@H](C)NC(=O)[C@@H](NC(=O)[C@H](Cc2ccccc2)NC(=O)[C@@H](NC(=O)[C@H](CCCCN)NC(=O)[C@H](Cc2c[nH]c3ccccc23)NC(=O)[C@@H]2CCCN2C(=O)[C@H](Cc2c[nH]c3ccccc23)NC(=O)[C@H](Cc2ccccc2)NC(=O)[C@@H](N)CCCCN)[C@@H](C)CC)CSSC[C@@H](C(=O)O)NC(=O)[C@H](CCCCN)NC(=O)[C@H](CCCCN)NC(=O)[C@H]([C@@H](C)O)NC1=O [KW^3,5B2] (H-KFWPWKIFCAITKKC-OH; disulfide 9-15) | – | – | – | 32 µM (≈ 60.7 µg/mL) | 8 µM (≈ 15.2 µg/mL) | 32.07 µM | 64 µM (≈ 121 µg/mL) | 32 µM (≈ 60.7 µg/mL) | 128 µM (≈ 243 µg/mL) | 64 µM (≈ 121 µg/mL) | 16 µM (≈ 30.4 µg/mL) | 32 µM (≈ 60.7 µg/mL) | 8 µM (≈ 15.2 µg/mL) | 256 µM (≈ 486 µg/mL) | 256 µM (≈ 486 µg/mL) | 32 µM (≈ 60.7 µg/mL) | 16 µM (≈ 30.4 µg/mL)
4 | CC[C@H](C)[C@@H]1NC(=O)[C@H](C)NC(=O)[C@@H](NC(=O)[C@H](Cc2ccccc2)NC(=O)[C@@H](NC(=O)[C@H](CCCCN)NC(=O)[C@@H]2CCCN2C(=O)[C@H](CC(C)C)NC(=O)[C@@H](N)Cc2ccccc2)[C@@H](C)CC)CSSC[C@@H](C(=O)O)NC(=O)[C@H](CCCCN)NC(=O)[C@H](CCCCN)NC(=O)[C@H]([C@@H](C)O)NC1=O [Peptide B1A2] (H-FLPKIFCAITKKC-OH; disulfide 7-13) | – | – | – | > 512 µM | 256 µM (≈ 387 µg/mL) | could not be calculated and >512 µM | > 512 µM | > 512 µM | > 512 µM | > 512 µM | 256 µM (≈ 387 µg/mL) | 512 µM (≈ 773 µg/mL) | 512 µM (≈ 773 µg/mL) | > 512 µM | > 512 µM | 256 µM (≈ 387 µg/mL) | 256 µM (≈ 387 µg/mL)
5 | CC[C@H](C)[C@@H]1NC(=O)[C@H](C)NC(=O)[C@@H](NC(=O)[C@H](Cc2ccccc2)NC(=O)[C@@H](NC(=O)[C@H](CCCCN)NC(=O)[C@H](Cc2c[nH]c3ccccc23)NC(=O)[C@@H]2CCCN2C(=O)[C@H](CC(C)C)NC(=O)[C@H](Cc2ccccc2)NC(=O)[C@@H](N)CCCCN)[C@@H](C)CC)CSSC[C@@H](C(=O)O)NC(=O)[C@H](CCCCN)NC(=O)[C@H](CCCCN)NC(=O)[C@H]([C@@H](C)O)NC1=O [KWB2] (H-KFLPWKIFCAITKKC-OH; disulfide 9-15) | – | – | – | 64 µM (≈ 117 µg/mL) | 8 µM (≈ 14.6 µg/mL) | 99.81 µM | 128 µM (≈ 234 µg/mL) | 64 µM (≈ 117 µg/mL) | 256 µM (≈ 467 µg/mL) | 128 µM (≈ 234 µg/mL) | 32 µM (≈ 58.4 µg/mL) | 64 µM (≈ 117 µg/mL) | 16 µM (≈ 29.2 µg/mL) | 512 µM (≈ 934 µg/mL) | 256 µM (≈ 467 µg/mL) | 32 µM (≈ 58.4 µg/mL) | 16 µM (≈ 29.2 µg/mL)
6 | CC[C@H](C)[C@@H]1NC(=O)[C@H](C)NC(=O)[C@@H](NC(=O)[C@H](Cc2ccccc2)NC(=O)[C@H](Cc2c[nH]c3ccccc23)NC(=O)[C@H](CCCCN)NC(=O)[C@H](Cc2c[nH]c3ccccc23)NC(=O)[C@@H]2CCCN2C(=O)[C@H](CC(C)C)NC(=O)[C@H](Cc2ccccc2)NC(=O)[C@@H](N)CCCCN)CSSC[C@@H](C(=O)O)NC(=O)[C@H](CCCCN)NC(=O)[C@H](CCCCN)NC(=O)[C@H]([C@@H](C)O)NC1=O [KW^5,7B2] (H-KFLPWKWFCAITKKC-OH; disulfide 9-15) | – | – | – | 32 µM (≈ 60.7 µg/mL) | 8 µM (≈ 15.2 µg/mL) | 58.42 µM | 64 µM (≈ 121 µg/mL) | 32 µM (≈ 60.7 µg/mL) | 128 µM (≈ 243 µg/mL) | 64 µM (≈ 121 µg/mL) | 16 µM (≈ 30.4 µg/mL) | 32 µM (≈ 60.7 µg/mL) | 16 µM (≈ 30.4 µg/mL) | 512 µM (≈ 971 µg/mL) | 256 µM (≈ 486 µg/mL) | 64 µM (≈ 121 µg/mL) | 16 µM (≈ 30.4 µg/mL)
7 | CC[C@H](C)[C@@H]1NC(=O)[C@H](C)NC(=O)[C@@H](NC(=O)[C@H](Cc2ccccc2)NC(=O)[C@@H](NC(=O)[C@H](CCCCN)NC(=O)[C@@H]2CCCN2C(=O)[C@H](CC(C)C)NC(=O)[C@H](Cc2ccccc2)NC(=O)[C@H](CCCCN)NC(=O)[C@@H](N)CCCCN)[C@@H](C)CC)CSSC[C@@H](C(=O)O)NC(=O)[C@H](CCCCN)NC(=O)[C@H](CCCCN)NC(=O)[C@H]([C@@H](C)O)NC1=O [KKB2] (H-KKFLPKIFCAITKKC-OH; disulfide 9-15) | – | – | – | 64 µM (≈ 113 µg/mL) | 16 µM (≈ 28.3 µg/mL) | 207 µM | 256 µM (≈ 452 µg/mL) | 128 µM (≈ 226 µg/mL) | > 512 µM | 256 µM (≈ 452 µg/mL) | 64 µM (≈ 113 µg/mL) | 64 µM (≈ 113 µg/mL) | 32 µM (≈ 56.5 µg/mL) | 512 µM (≈ 904 µg/mL) | 512 µM (≈ 904 µg/mL) | 32 µM (≈ 56.5 µg/mL) | 16 µM (≈ 28.3 µg/mL)
